Where two headings read alike, the source gives them in different places. Positions of bridges follow the written chain, without caps; N, C: chain ends. Non-standard residues stand in square brackets, D forms with d. Residues, ends and D or L forms follow the SMILES beside them. *: point of attachment. d(aThr) = C[C@@H](O)[C@@H](N)C(=O)O; X1 = CCCCCCCCCCCC(O)CC(=O)*
Test system: Trichomonas vaginalis G3 trophozoites
Details: for T.vaginalis_Absorbance_Rep1: replicate 1, raw absorbance; for T.vaginalis_Absorbance_Rep2: replicate 2, raw absorbance
[1] = HTS, parasite screen at 1 µg/mL, replicate 1
[2] = HTS, parasite screen at 1 µg/mL
[3] = HTS, parasite screen at 1 µg/mL, replicate 2
[4] = HTS replicate 1, parasite screen 1 µg/mL
[5] = HTS replicate 2, parasite screen 1 µg/mL

Molecule: CC[C@]1(C)C[C@@H](OC(=O)CO)[C@]2(C)[C@H](C)CC[C@]3(CCC(=O)[C@H]32)[C@@H](C)[C@@H]1O [Dihydropleuromutilin]
- T.vaginalis_%inb_Rep1 [1]: 14.27%
- T.vaginalis_Absorbance_Rep1 [2]: 0.974
- T.vaginalis_%inb_Rep2 [3]: 13.23%
- T.vaginalis_Absorbance_Rep2 [2]: 0.803

Molecule: Pyripyropene A
- T.vaginalis_%inb_Rep1 [4]: 11.61%
- T.vaginalis_%inb_Rep2 [5]: 12.83%

Molecule: CC(=O)c1c(O)cc(O)cc1O [Monoacetylphloroglucinol]
- T.vaginalis_%inb_Rep1 [4]: 4.36%
- T.vaginalis_%inb_Rep2 [5]: 14.18%

Molecule: Cc1ncc(-c2c[nH]c3ccccc23)o1 [Pimprinine]
- T.vaginalis_%inb_Rep1 [4]: 11.61%
- T.vaginalis_%inb_Rep2 [5]: 11.80%

Molecule: CO[C@H]1C[C@H](O[C@H]2[C@H](C)O[C@@H](O[C@@H]3/C(C)=C/C[C@@H]4C[C@@H](C[C@]5(C=C[C@H](C)[C@@H](C6CCCCC6)O5)O4)OC(=O)C4=C[C@H](C)[C@@H](O)[C@H]5OC/C(=C\C=C[C@@H]3C)[C@@]45O)C[C@@H]2OC)O[C@@H](C)[C@@H]1O [Doramectin, delta2-]
- T.vaginalis_%inb_Rep1 [1]: 13.79%
- T.vaginalis_Absorbance_Rep1 [2]: 0.965
- T.vaginalis_%inb_Rep2 [3]: 15.04%
- T.vaginalis_Absorbance_Rep2 [2]: 0.828

Molecule: COc1cc(O)c2c(c1)/C=C/CC(O)C(O)C(=O)/C=C/CC(C)OC2=O (stereo not drawn) [Oxozeaenol, (5E)-7-]
- T.vaginalis_%inb_Rep1 [4]: 8.42%
- T.vaginalis_%inb_Rep2 [5]: 13.66%

Molecule: CCOC(=O)c1c(C)cc(O)cc1O [Ethyl orsellinate]
- T.vaginalis_%inb_Rep1 [1]: 14.45%
- T.vaginalis_Absorbance_Rep1 [2]: 0.987
- T.vaginalis_%inb_Rep2 [3]: 11.67%
- T.vaginalis_Absorbance_Rep2 [2]: 0.817

Molecule: COC1=C(OC)C(=O)C(C)C(C)C1=O (stereo not drawn) [Gliorosein]
- T.vaginalis_%inb_Rep1 [1]: 13.24%
- T.vaginalis_Absorbance_Rep1 [2]: 0.963
- T.vaginalis_%inb_Rep2 [3]: 15.33%
- T.vaginalis_Absorbance_Rep2 [2]: 0.874

Molecule: COc1cc([C@H]2[C@@]3(O)[C@H](O)[C@H]4C[C@]2(O)[C@](O)(C(=O)O4)[C@H]3C(=O)c2ccccc2)oc(=O)c1 [Enterocin]
- T.vaginalis_%inb_Rep1 [1]: 13.08%
- T.vaginalis_Absorbance_Rep1 [2]: 0.96
- T.vaginalis_%inb_Rep2 [3]: 12.38%
- T.vaginalis_Absorbance_Rep2 [2]: 0.828

Molecule: O=c1[nH]c2ccccc2c(-c2cccc(O)c2)c1O [Viridicatol]
- T.vaginalis_%inb_Rep1 [1]: 6.71%
- T.vaginalis_%inb_Rep2 [3]: 14.99%

Molecule: COC1C(OC(N)=O)C(O)C(Oc2ccc3c(O)c(NC(=O)c4ccc(O)c(CCC(C)C)c4)c(=O)oc3c2C)OC1(C)C (stereo not drawn) [Dihydronovobiocin]
- T.vaginalis_%inb_Rep1 [1]: 2.80%
- T.vaginalis_Absorbance_Rep1 [2]: 0.761
- T.vaginalis_%inb_Rep2 [3]: 4.84%
- T.vaginalis_Absorbance_Rep2 [2]: 0.687

Molecule: CCCCCCCCCCCC(O)CC(=O)N[C@@H](CC(C)C)C(=O)N[C@H](CCC(=O)O)C(=O)N[C@H]1C(=O)N[C@H](C(C)C)C(=O)N[C@@H](CC(C)C)C(=O)N[C@H](CO)C(=O)N[C@@H](CC(C)C)C(=O)N[C@@H](CC(C)C)C(=O)N[C@H](CO)C(=O)N[C@@H](C(C)C)C(=O)O[C@@H]1C (stereo partly drawn) [Orfamide B] (X1-L[dE][d(aThr)][dV]L[dS]LL[dS]V; ester 3-C)
- T.vaginalis_%inb_Rep1 [4]: 16.23%
- T.vaginalis_%inb_Rep2 [5]: 12.19%

Molecule: CC[C@H]1OC(=O)[C@H](C)[C@@H](O[C@H]2C[C@@](C)(OC)[C@@H](O)[C@H](C)O2)[C@H](C)[C@@H](O[C@@H]2O[C@H](C)C[C@H](N(C)C)[C@H]2O)[C@](C)(O)C[C@@H](C)C(=O)[C@H](C)[C@@H](O)[C@H]1C [Erythromycin B]
- T.vaginalis_%inb_Rep1 [1]: 4.47%
- T.vaginalis_Absorbance_Rep1 [2]: 0.792
- T.vaginalis_%inb_Rep2 [3]: 1.66%
- T.vaginalis_Absorbance_Rep2 [2]: 0.643

Molecule: CN(C)C1C(=O)C(C(=O)NCN2CCN(CCO)CC2)=C(O)C2(O)C(=O)C3=C(O)c4c(O)cccc4C(C)(O)C3CC12 (stereo not drawn) [Pipacycline]
- T.vaginalis_%inb_Rep1 [4]: 11.66%
- T.vaginalis_%inb_Rep2 [5]: 12.19%

Molecule: Cn1c(=O)c(=Cc2ccccc2)[nH]c(=O)c1=Cc1ccccc1 [Piperafizine A]
- T.vaginalis_%inb_Rep1 [4]: 11.87%
- T.vaginalis_%inb_Rep2 [5]: 11.10%

Molecule: NC(=O)c1cccc2nc3ccccc3nc12 [Oxychloroaphine]
- T.vaginalis_%inb_Rep1 [4]: 11.41%
- T.vaginalis_%inb_Rep2 [5]: 13.92%

Molecule: C/C=C(\C)c1c(Cl)c(OC)c(C)c2c1Oc1c(Cl)c(O)c(Cl)c(C)c1C(=O)O2 [Nidulin]
- T.vaginalis_%inb_Rep1 [4]: 13.95%
- T.vaginalis_%inb_Rep2 [5]: 15.46%

Reference: PMC7897990, “TriTOX: A novel Trichomonas vaginalis assay platform for high-throughput screening of compound libraries” (International Journal for Parasitology: Drugs and Drug …, 2021)
